# Reference: patent publication US20260216103A1, “USE OF LONG-ACTING ß2AR AGONIST IN PREPARATION OF DRUGS FOR TREATING CANCERS” (HONG KONG SXMETEROL PHARMACEUTICAL CO., LIMITED, priority 2023, published 2026)
# Legend:
# [1] = test system: esophageal cancer cells KYSE-150; experiment: tumor sphere formation assay of esophageal cancer cells; type: cell-based; conditions: 10 μM, 7 d; FIG. 15; P<0.05
# Excerpt: (§1) As a gold standard for detecting the self-renewal capability of cancer stem cells in vitro, a tumor sphere formation assay may detect individual cancer stem cell that continuously self-renew in a conditioned medium and form tumor spheres consisting of multiple cells. This in vitro experiment is often used to test the responsiveness of clinical patients to anticancer drugs, and guide in vivo medication of the clinical patients.
# According to culture conditions in Table 5, esophageal cancer cells KYSE-150 were subjected to a tumor sphere formation assay, and treated with salmeterol xinafoate (SX) at a concentration of 10 μM.
# [2] = test system: kidney cancer cells G-401, 786-O; experiment: tumor sphere formation assay of kidney cancer cells; type: cell-based; conditions: 1 μM, 3 μM, or 10 μM, 7 d; FIG. 22
# Excerpt: as §1
# hematoma cells SU-DHL-8 = experiment: tumor sphere formation assay of hematoma cells; type: cell-based; conditions: 1 μM, 3 μM, or 10 μM, 7 d; FIG. 18
# Excerpt: as §1
# [3] = test system: pancreatic cancer cells CFPAC-1, PANC-1; experiment: tumor sphere formation assay of pancreatic cancer cells; type: cell-based; conditions: 1 μM, 3 μM, or 10 μM, 7 d; FIG. 24
# Excerpt: as §1
# [4] = test system: prostate cancer cells PC-3, DU145, RM-1; experiment: tumor sphere formation assay of prostate cancer cells; type: cell-based; conditions: 1 μM, 3 μM, or 10 μM, 7 d; FIG. 19
# Excerpt: as §1
# [5] = test system: CAL-27 head and neck cancer cells; experiment: subcutaneous tumorigenesis experiment with SX-pretreated head and neck cancer cells; type: in vivo, mice; conditions: cells treated with 10 μM SX for 3 d, 1×10^6/mouse; FIG. 7; P<0.0001 vs control
# Method: (§2) Experimental method and steps: Cancer cells were treated with salmeterol xinafoate (SX) in vitro for 3-7 d, and a subcutaneous or orthotopic tumorigenesis experiment was conducted on mice.
# CAL-27 head and neck cancer cells were treated with 10 μM salmeterol xinafoate (SX) for 3 d, and cells (1×10^6/mouse) were subcutaneously injected on both sides of the back of mice in a control group and an SX treated group (3 mice/group) to conduct a tumorigenesis experiment.
# Experimental results in FIG. 7 show cancer growth curves.
# [6] = test system: cancer stem cells of 17 cancers; experiment: tumor sphere formation assays of cancer cells, summary over 17 cancers; type: cell-based; conditions: summary of Examples 1-9; agonist used alone
# Excerpt: as §1
# Cancer stem cells have self-renewal capability, which determines the initiation and progression of cancers. As a gold standard for detecting the self-renewal capability of cancer stem cells in vitro, a tumor sphere formation assay may detect individual cancer stem cells that continuously self-renew in a conditioned medium and form tumor spheres consisting of multiple cells.
# osteosarcoma cells U2OS = experiment: tumor sphere formation assay of osteosarcoma cells; type: cell-based; conditions: 1 μM, 3 μM, or 10 μM, 7 d; FIG. 26; P<0.01
# Excerpt: as §1
# [7] = test system: KYSE-150 esophageal cancer cells; experiment: subcutaneous tumorigenesis experiment with SX-pretreated esophageal cancer cells; type: in vivo, mice; conditions: cells treated with 10 μM SX for 3 d, 1×10^6/mouse; FIG. 8; P<0.0001 vs control
# Method: as §2
# KYSE-150 esophageal cancer cells were treated with 10 μM salmeterol xinafoate (SX) for 3 d, and cells (1×10^6/mouse) were subcutaneously injected on both sides of the back of mice in a control group and an SX treated group (3 mice/group) to conduct a tumorigenesis experiment.
# Experimental results in FIG. 8 show cancer growth curves.
# B16F10 melanoma cells = experiment: tumorigenesis experiment with SX-pretreated melanoma cells; type: in vivo, mice; conditions: cells treated with 10 μM SX for 3 d
# Method: as §2
# B16F10 melanoma cells were treated with 10 μM salmeterol xinafoate (SX) for 3 d, and cells (1×10^6/mouse) were subcutaneously injected on both sides of the back of mice in a control group and an SX treated group (4 mice/group) to conduct a tumorigenesis experiment. Cancers formed subcutaneously at all 8 injection sites of 4 mice in the control group, and cancers formed subcutaneously also at all 8 injection sites of 4 mice in the SX treated group.
# Experimental results in FIG. 10 show cancer growth curves and representative cancer photos.
# [8] = test system: ovarian cancer cells SKOV3; experiment: tumor sphere formation assay of ovarian cancer cells; type: cell-based; conditions: 1 μM, 3 μM, or 10 μM, 7 d; FIG. 21
# Excerpt: as §1
# LLC lung cancer cells = experiment: subcutaneous tumorigenesis experiment with SX-pretreated lung cancer cells (LLC); type: in vivo, mice; conditions: cells treated with 10 μM SX for 7 d
# Method: as §2
# In FIG. 6B, LLC lung cancer cells were treated with 10 μM salmeterol xinafoate (SX) for 7 d, and cells (1×10^5/mouse) were subcutaneously injected on both sides of the back of mice in a control group (8 mice) and an SX treated group (5 mice) to conduct a tumorigenesis experiment.
# (§3) Experimental results in FIG. 6 show cancer growth curves and representative cancer photos.
# [9] = test system: gastric cancer cells SNU-1; experiment: tumor sphere formation assay of gastric cancer cells; type: cell-based; conditions: 10 μM, 7 d; FIG. 23; P<0.001
# Excerpt: as §1
# According to culture conditions in Table 13, gastric cancer cells SNU-1 were subjected to a tumor sphere formation assay, and treated with salmeterol xinafoate (SX) at a concentration of 10 μM.
# [10] = test system: lung cancer cells LLC, H1299, H460, H446; experiment: tumor sphere formation assay of lung cancer cells; type: cell-based; conditions: 1 μM, 3 μM, or 10 μM, 7 d; FIG. 13
# Excerpt: as §1
# [11] = test system: MDA-MB-231 breast cancer cells; experiment: orthotopic tumorigenesis experiment with SX-pretreated breast cancer cells; type: in vivo, mice; conditions: cells treated with 10 μM SX for 7 d
# Method: as §2
# MDA-MB-231 breast cancer cells were treated with 10 μM salmeterol xinafoate (SX) for 7 d, and cells (1×10^4/mouse) were injected into the orthotopic mammary fat pads on both sides of the body of mice in a control group and an SX treated group (5 mice/group) to conduct a tumorigenesis experiment. 8 orthotopic cancers formed at 10 injection sites in the orthotopic mammary fat pads of 5 mice in the control group, and only 6 orthotopic cancers formed at 10 injection sites in the orthotopic mammary fat pads of 5 mice in the SX treated group.
# Experimental results in FIG. 4 show cancer growth curves and representative cancer photos.
# H460 lung cancer cells = experiment: subcutaneous tumorigenesis experiment with SX-pretreated lung cancer cells (H460); type: in vivo, mice; conditions: cells treated with 10 μM SX for 7 d
# Method: as §2
# In FIG. 6A, H460 lung cancer cells were treated with 10 μM salmeterol xinafoate (SX) for 7 d, and cells (3×10^5/mouse) were subcutaneously injected on both sides of the back of mice in a control group (7 mice) and an SX treated group (5 mice) to conduct a tumorigenesis experiment.
# as §3
compound,measurement,setting,value
OCc1cc(C(O)CNCCCCCCOCCCCc2ccccc2)ccc1O (centres unmarked) [salmeterol xinafoate],number of tumor spheres (self-renewal capability of cancer stem cells),[1],inhibited the self-renewal capability of the esophageal cancer stem cells
same,number of tumor spheres (self-renewal capability of cancer stem cells),[2],inhibited the self-renewal capability of the kidney cancer stem cells in a concentration dependent manner
same,number of tumor spheres (self-renewal capability of cancer stem cells),hematoma cells SU-DHL-8,inhibited the self-renewal capability of the hematoma stem cells in a concentration dependent manner
same,number of tumor spheres (self-renewal capability of cancer stem cells),[3],inhibited the self-renewal capability of the pancreatic cancer stem cells in a concentration dependent manner
same,number of tumor spheres (self-renewal capability of cancer stem cells),[4],inhibited the self-renewal capability of the prostate cancer stem cells in a concentration dependent manner
same,cancer growth curves (initiation and progression),[5],inhibits the initiation and progression of subcutaneous head and neck cancer
same,self-renewal capability of cancer stem cells,[6],can significantly inhibit the self-renewal capability of cancer stem cells of 17 cancers
same,number of tumor spheres (self-renewal capability of cancer stem cells),osteosarcoma cells U2OS,inhibited the self-renewal capability of the osteosarcoma cancer stem cells
same,cancer growth curves (initiation and progression),[7],inhibits the initiation and progression of subcutaneous esophageal cancer
same,cancers formed subcutaneously at injection sites,"B16F10 melanoma cells; 1×10^6/mouse, 8 injection sites of 4 mice, control group all 8 sites",8
same,cancer growth curves (initiation and progression),"B16F10 melanoma cells; FIG. 10, P<0.0001 vs control",inhibits the initiation and progression of orthotopic melanoma
same,number of tumor spheres (self-renewal capability of cancer stem cells),[8],inhibited the self-renewal capability of the ovarian cancer stem cells in a concentration dependent manner
same,cancers formed subcutaneously at injection sites,"LLC lung cancer cells; 1×10^5/mouse, 10 injection sites of 5 mice, control group all 16 sites",no cancers formed
same,cancer growth curves (initiation and progression),"LLC lung cancer cells; FIG. 6B, P<0.0001 vs control",inhibits the initiation and progression of subcutaneous lung cancer
same,number of tumor spheres (self-renewal capability of cancer stem cells),[9],inhibited the self-renewal capability of the gastric cancer stem cells
same,number of tumor spheres (self-renewal capability of cancer stem cells),[10],inhibited the self-renewal capability of the lung cancer stem cells in a concentration dependent manner
same,orthotopic cancers formed at injection sites,"[11]; 1×10^4/mouse into orthotopic mammary fat pads, 10 injection sites of 5 mice, control group 8",6
same,cancer growth curves (initiation and progression),"[11]; FIG. 4, P<0.0001 vs control",inhibits the initiation and progression of orthotopic breast cancer
same,cancers formed subcutaneously at injection sites,"H460 lung cancer cells; 3×10^5/mouse, 10 injection sites of 5 mice, control group 11 at 14 sites",no cancers formed
same,cancer growth curves (initiation and progression),"H460 lung cancer cells; FIG. 6A, P<0.0001 vs control",inhibits the initiation and progression of subcutaneous lung cancer
